The source of these data is US20100221709A1, “METHODS FOR IDENTIFYING AGENTS THAT MODULATE APOPTOSIS IN CELLS THAT OVER-EXPRESS A BCL-2 FAMILY MEMBER PROTEIN” (priority 2005, published 2010).

Read-outs that look alike come from different tables or passages of the source.

For data set [1], the target named is T1, Bcl-xL(ΔC) WT (Homo sapiens, UniProt Q07817).
T1 construct: inferred from pET22b(+) NdeI/XhoI cloning and nickel-NTA purification) (C); made in house; host or cells: Escherichia coli BL21(DE3) carrying pUB520
T1 sequence (Q07817 1-211 limits assumed, stated change not applied): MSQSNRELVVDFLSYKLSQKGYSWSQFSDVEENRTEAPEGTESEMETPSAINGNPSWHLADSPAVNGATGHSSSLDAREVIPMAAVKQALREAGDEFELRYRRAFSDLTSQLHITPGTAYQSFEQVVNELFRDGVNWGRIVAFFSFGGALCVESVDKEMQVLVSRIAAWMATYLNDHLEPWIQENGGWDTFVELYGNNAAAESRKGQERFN
Put plainly: Pore assay, calcein release from large unilamellar vesicles. The class given is biochemical. Here is the method:
Large unilamellar vesicles composed of 60% dioleoylphophatidylcholine and 40% dioleoylphosphatidylglycerol were prepared by the extrusion method of Mayer et al., supra. Lipid stocks, in chloroform, were mixed and dried under a stream of nitrogen gas. The lipid was resuspended by vortexing for 30 min in a solution of 40 mM calcein (Molecular Probes), 25 mM KCl, and 10 mM KOAc, pH 5.0. After 10 freeze-thaw cycles, the lipid suspension was extruded through two 0.1 μm pore diameter Nucleopore filters. Non-entrapped dye was removed by passage over a Sephadex G10 column (Amersham Biosciences). Lipid concentration was measured using the ammonium ferrothiocyanate method (Stewart, Anal. Biochem. 104:10-14, 1980).
For pore assays, recombinant truncated Bcl-2 family protein or mutant protein (Bcl-xL(ΔC)) (500 nM) was added to large unilamellar vesicles (60 μM lipid concentration) in 100 mM KCl, 10 mM KOAc, pH 5.0, and fluorescence measured (490 nm excitation, 520 nm emission) with a Fluoromax-3 spectrophotometer. Peptides of the BH3 domain were incubated with the Bcl-xL(ΔC) 5 min prior to mixing with liposomes. AA1 was added to liposomes 1 min before adding the Bcl-xL(ΔC) protein. Samples for kinetic assays were analyzed in a thermostatted cuvette at 37° C. with constant stirring. Dose responses were measured in black quartz microplates (Hellma) at room temperature. Calcein release was expressed as percentage of maximum release with detergent lysis (0.1% Triton X-100).

Data set [2] deals with TABX2S cells (over-expressing Bcl-xL). Put plainly: in vitro. An excerpt:
(§1) Briefly, a DNA fragment encoding the full-length mouse Bcl-xL cDNA was isolated from the plasmid pBS-BCL-xL (Tzung et al., Am. J. Path. 150:1985-1995 (1997), incorporated herein by reference in its entirety) by digestion with the restriction endonuclease EcoRI. This EcoRI fragment was cloned into the EcoRI site of the mammalian expression vector pSFFV (Fuhlbrigge et al., Proc. Nat. Acad. Sci. USA 85:5649-5653 (1988)) in both sense and antisense orientations, to form expression plasmids pSFFV-Bc/-xL-WT(sense) or pSFFV-Bc/-xL(antisense), respectively. The tumorigenic murine hepatocyte cell line TAMH was transfected by lipofection (Lipofectamine, Life Technologies, Rockville, Md., according to the manufacturer's recommendations) with the plasmids pSFFV-neo (the control), pSFFV-Bc/-xL-WT(sense) or pSFFV-Bc/-xL(antisense). Characterization of and culture conditions for the cell lines have been previously published (Wu et al., Proc. Nat. Acad. Sci. USA 91:674-78 (1994); Wu et al., Cancer Res. 54:5964-5973 (1994)). Transfectants were selected for the acquisition of neomycin resistance by growing cells in the presence of 750 μg/ml of G418. Bulk transfectants were cloned by limiting dilution and individual clones were screened by immunoblot analysis to determine the level of Bcl-xL, protein expression as described below.
(§2) Selected transfectants were then tested for whole cell sensitivity to several apoptotic agents. Transfected cells were cultured to reach approximately 80% confluency prior to plating an equal number of cells from selected clones on 12-well tissue culture plates. The transplanted cells were treated with the following apoptotic agents: 5 μM doxorubicin for 48 hours; 5 μM cisplatin for 48 hours; or with 200 U/ml tumor necrosis factor (TNF) plus 1 μg/ml actinomycin D for 18 hours. Cell viability was determined by trypan blue dye exclusion. The percentage of viable cells was calculated by the number of viable cells (treated with a particular apoptogenic agent) divided by the number in the control group (untreated).
(§3) TABX2S cells and TABX1A cells were also examined for the effects of various mitochondrial inhibitors. […] Azide was diluted from an aqueous stock solution.

In data set [3] the test system is myeloma cell lines (RPMI-8226, U266, NCI-H929). The class given is cell-based, human. Here is the method:
Cell survival was assayed by exclusion of propidium iodide (PI) (10 mg/ml) by unfixed cells. Annexin V-FITC (Pharmingen) or 3,3′-dihexyloxacarbocyanine iodide (DiOC6(3)) (Molecular Probes) staining was analyzed together with PI to discriminate early apoptotic cells. Apoptotic cells were also measured as sub-G1 events among ethanol-fixed cells stained with […] PI. All cell samples were analyzed using a benchtop FACSCalibur® (Becton Dickinson, San Jose, Calif.) flow cytometer. Flow data were analyzed using MultiCycle AV software (Phoenix Flow Systems). For intracellular pH measurements, cell pellets were washed once and resuspended in 2 ml of HEPES-buffered medium (no phenol red and no serum). Carboxy-SNARF®-1 acetoxymethyl (AM) ester (Molecular Probes, 1 mM stock in DMSO, stored at −20° C.), a long wavelength fluorescent pH indicator, was added to a final concentration of 10 μM, and the cells were incubated for 30 min at 37° C. Following incubation with SNARF®-1 AM, cells were sedimented and the pellets were held on ice. Immediately before analysis, pellets were resuspended in Earle's balanced salt solution (experimental buffer) or high-[K^+] buffer containing nigericin (calibration samples).

Data set [4] is described as follows: Cell viability by trypan blue dye exclusion. The conditions noted are these: mouse.
Excerpt: as §1
as §2, with “(untreated). […]” for “(untreated).”

The nature of data set [5]: in vitro. The settings on record: mouse.
Excerpt: as §1, §2, §3

The subject of data set [6] is mitochondria from cells over-expressing Bcl-xL (TABX2S cells). The experiment in a line: JC-1 staining of isolated mitochondrial fractions. The class given is biochemical, murine. The settings on record: 2 μg/ml. On the procedure:
Briefly, at 15 and 30 minutes, 5×10^5 cells were washed, trypsinized and resuspended in 1 ml of growth media. Each sample was stained with 10 μg/ml of JC-1 prepared in DMSO. After 10 minutes of incubation at 37° C., cells were transferred to ice and analysis was performed using a FACScan flow cytometer (Becton Dickinson). The excitation wavelength was 488 nm whereas measurement was performed at 520 and 585 nm for green and red fluorescence, respectively. Green and red fluorescence were measured on FL1 and FL2 channels, respectively. A minimum of 10,000 cells per sample were analyzed. Comparisons were made based on the results of at least three experiments.
Isolated mitochondria were loaded with JC-1 prior to treatment, and mitochondrial labeling was determined using FACS. […] Antimycin A-treated mitochondria with high levels of Bcl-xL had lower levels of JC-1 staining than parallel samples treated with CCCP. Uncoupled mitochondria still retain a significant Donnan potential because of trapped anionic species and it is likely that antimycin-induced PT and/or swelling of mitochondria led to a further reduction of this residual potential.
As observed for the parent compound, antimycin A3, mitochondria with normal levels of Bcl-xL expression were not affected by the 2-methoxy analog.

Data set [7] can be described thus: Cellular O2 consumption. The format is cell-based. The conditions noted are these: compared to antimycin A3.
Data set [8] concerns the target T2, recombinant Bcl-2 (Bcl-2ΔC22) (Homo sapiens, UniProt P10415).
T2 construct: poly-His (N); made in house
Put plainly: Antimycin A3 fluorescence binding and competitive displacement assay. The conditions noted are these: antimycin A3 2 μM, competitor 2 μM, Bcl-2 3 μM. Here is the method:
In this assay, 0 to 5 μM antimycin A3 (Sigma Chemical Co., St. Louis, Mo.) was added to a physiological buffer (50 mM Tris-HCl pH 8.0, 0.2 M NaCl, 2 mM EDTA, 0.5% v/v glycerol) containing recombinant Bcl-2 or Bcl-xL protein under conditions that permitted antimycin A3 to bind to the BH3-binding domain of Bcl-2 or Bcl-xL, (22.5° C. on a Hitachi F-2500 fluorescence spectrofluorimeter equipped with a thermostatted cell holder). […] The excitation wavelength was 335 nm, and the maximum emission wavelength for antimycin A3 was 428 nm with a slit width of 10 nm. The samples were mixed in a quartz cuvette and checked for inner filter effect over the range of antimycin A3 for this study. […]
Recombinant human Bcl-2ΔC22 (a recombinant human […] lacking the C-terminal 22-amino acid residue membrane anchor sequence) and mouse Bcl-xLΔC20 (a murine Bcl-xL lacking the C terminal 20-amino acid residue membrane anchor sequence) fused with poly-His at the N-terminus were chromatographically purified to homogeneity. The concentrations of antimycin A3 and stock solutions of recombinant proteins were quantitated using an extinction coefficient of 7.24/mM/cm at 320 nm and by Bradford assay, respectively. […] For peptide displacement experiments, a solution of 2 μM antimycin A3 and 3 μM Bcl-2 was allowed to reach binding equilibrium at 4° C. prior to fluorescence measurements. […]

T2 sequence (P10415 1-217 limits assumed, stated change not applied): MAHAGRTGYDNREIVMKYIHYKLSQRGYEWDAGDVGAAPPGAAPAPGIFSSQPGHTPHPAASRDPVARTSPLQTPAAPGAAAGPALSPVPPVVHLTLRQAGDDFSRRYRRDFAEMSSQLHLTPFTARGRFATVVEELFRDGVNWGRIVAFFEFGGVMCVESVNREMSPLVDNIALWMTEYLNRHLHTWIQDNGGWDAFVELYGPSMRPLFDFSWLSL

Take `CC(C)C(C(=O)O)N1C(=O)/C(=C\c2ccc(Br)cc2)SC1=S` (centres unmarked) [BH3I-1]: the “effect on Bcl-xL pore-forming activity (FIG. 3A)” value in data set [1] is “no effect”.

In the case of `CC[C@H]1/C=C/C=C/C[C@@H](C)[C@H](O)[C@@](C)(O)C(=O)[C@@H](C)[C@H](O)[C@@H](C)C(=O)[C@@H](C)[C@H](O)[C@@H](C)/C=C/C(=O)O[C@@H]2[C@H](C)[C@H](CC1)O[C@]1(CC[C@H](C)[C@H](C[C@@H](C)O)O1)[C@H]2C` [oligomycin], the “difference in sensitivity of TABX2S and TABX1A cell lines” value (from here on “difference in sensitivity”) in data set [2] was “no significant differences”. Further, the cell killing entry in data set [3] (2-10 mg/ml) was “Only H929 cells were killed”.

One may read the viability as a read-out of living cells in per cent, often relative to untreated cells. In the case of `COc1cccc2c1C(=O)c1c(O)c3c(c(O)c1C2=O)C[C@@](O)(C(=O)CO)C[C@@H]3O[C@H]1C[C@H](N)[C@H](O)[C@H](C)O1` [doxorubicin], the viability at 48 h, 5 µM in data set [4] stood at 50%; in data set [4] (TABX1A cells (TAMH hepatocyte line with Bcl-xL antisense)), 20%. For the same molecule, in data set [5], the viability at 5 µM is 88%.

For `CCCC[C@H]1C(=O)OC(C)C(NC(=O)c2cccc(NC=O)c2OC)C(=O)O[C@@H](C)C1OC(=O)CC(C)C` (some centres unmarked) [2-methoxy antimycin A3, antimycin A3 methyl ether], the “mitochondrial depolarization (JC-1)” value in data set [6] was “strongly depolarized”. Further, the “cytotoxicity for cells that over-express Bcl-xL versus control cells” value in data set [2] (TABX2S vs TAMH.neo and TABX1A) is listed as “selective cytotoxicity”. In addition, in data set [7], the “effect on cellular O2 consumption” value was “negligible effect”. Further, the “displacement of antimycin A3 from Bcl-2 (antimycin A3 fluorescence)” value in data set [8] is recorded as “decreased exponentially”.

Turning to `CCCCC1C(=O)OC(C)C(NC(=O)c2cccc(NC=O)c2OCC(=O)c2ccccc2)C(=O)OC(C)C1OC(=O)CC(C)C` (centres unmarked) [phenacyl ether antimycin A3], the “displacement of antimycin A3 from Bcl-2 (antimycin A3 fluorescence)” value in data set [8] was “did not displace”.

With `C=C(C)[C@H]1Cc2c(ccc3c2O[C@@H]2COc4cc(OC)c(OC)cc4[C@@H]2C3=O)O1` [rotenone], in data set [2], the “difference in sensitivity” value is “no significant differences”. Also, in data set [3] (0.5-2.5 mg/ml), the cell killing entry was “none of the myeloma cell lines were killed”.

Regarding `CC(C)[C@@H]1NC(=O)[C@H](C)OC(=O)[C@@H](C(C)C)NC(=O)[C@@H](C(C)C)OC(=O)[C@H](C(C)C)NC(=O)[C@H](C)OC(=O)[C@@H](C(C)C)NC(=O)[C@@H](C(C)C)OC(=O)[C@H](C(C)C)NC(=O)[C@H](C)OC(=O)[C@@H](C(C)C)NC(=O)[C@@H](C(C)C)OC1=O` [valinomycin], in data set [2], the “difference in sensitivity” value is “no significant differences”.
